In EP1214345B1, “AGENTS FOR TREATING HUMAN DISEASES, ESPECIALLY FOR TREATING TUMORS SUCH AS COLONIC CANCERS AND MELANOMAS OR FOR REGENERATING TISSUE AND PROMOTING HAIR GROWTH” (MAX-DELBRÜCK-CENTRUM FÜR MOLEKULARE MEDIZIN, priority 1999, dated 2001):

What follows are molecules tested against T1, Komplexbildung von β-Catenin und LEF-1 (Homo sapiens, UniProt P35222) (assay: ELISA for inhibition of complex formation of β-Catenin and LEF-1 (recombinant His-tagged proteins, detection with antibody PA2)). Conditions: recombinant LEF-1 adsorbed, 50-100 ng β-Catenin, 10% DMSO final, substances 1 µM to 10 mM, read-out: IC50 Hemmung der Komplexbildung von β-Catenin und LEF/TCF.
T1 construct: made in house
T1 sequence (P35222 1-781): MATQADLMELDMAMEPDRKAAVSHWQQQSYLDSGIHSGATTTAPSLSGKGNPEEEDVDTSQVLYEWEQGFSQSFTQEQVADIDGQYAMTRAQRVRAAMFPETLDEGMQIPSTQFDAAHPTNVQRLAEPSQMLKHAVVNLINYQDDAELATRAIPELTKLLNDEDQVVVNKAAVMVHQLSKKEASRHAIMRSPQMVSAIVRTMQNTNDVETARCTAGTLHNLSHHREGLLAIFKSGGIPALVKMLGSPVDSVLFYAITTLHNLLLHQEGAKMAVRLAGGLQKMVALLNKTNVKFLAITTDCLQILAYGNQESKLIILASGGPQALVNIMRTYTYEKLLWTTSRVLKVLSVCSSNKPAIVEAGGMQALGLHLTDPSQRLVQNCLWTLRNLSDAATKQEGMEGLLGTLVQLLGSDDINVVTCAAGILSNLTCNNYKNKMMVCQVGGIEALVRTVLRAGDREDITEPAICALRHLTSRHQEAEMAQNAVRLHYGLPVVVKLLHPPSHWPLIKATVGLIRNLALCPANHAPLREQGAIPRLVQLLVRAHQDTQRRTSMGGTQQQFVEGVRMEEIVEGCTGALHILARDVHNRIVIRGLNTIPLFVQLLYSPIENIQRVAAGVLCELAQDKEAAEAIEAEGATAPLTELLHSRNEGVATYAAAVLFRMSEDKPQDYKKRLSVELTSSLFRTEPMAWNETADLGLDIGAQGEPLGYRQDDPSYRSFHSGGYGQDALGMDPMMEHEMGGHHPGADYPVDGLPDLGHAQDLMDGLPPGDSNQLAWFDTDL
Format: binding
Text: Im Einzelnen wurden folgende Untersuchungen durchgerührt: • 1. Identifizierung von separaten, essentiellen Bindungsstellen von β-Catenin für die Interaktion mit LEF-1/TCF-4, mit den 20 und 15 Aminosäure-Repeats von APC oder Conductin/Axin Basierend auf der Röntgen-Kristall-Strukturanalyse der Armadillo-Domäne von β-Catenin (Huber et al., 1997) wurden ausgewählte basische und aromatische Aminosäure-Reste durch Alanin-Reste substituiert und die Punktmutanten auf Interaktion mit den Bindungspartnern von β-Catenin im Hefe-2-Hybrid-System analysiert (Abb. 1). Die Mutationen, welche spezifische Interaktionen blockieren, bilden Cluster in separaten Subregionen der Domäne. Sie markieren die essentiellen Kontaktpunkte in den spezifischen Bindungsstellen für die Interaktion mit LEF/TCF (Lys 435, Arg 469, His 470, Lys 508, Arg 515), mit den 20 Aminosäure-Repeats von APC (Trp 383, Lys 345), mit den 15 Aminosäure-Repeats von APC (Arg 386), oder mit Conductin (Phe 253, His 260, Lys 292). Die erweiterten Interaktionsstellen sind der Abb 1 zu entnehmen. • 2. Analyse der Moleküloberfläche von β-Catenin im Bereich der essentiellen Bindungsstelle für LEF/TCF Ausgehend von den Daten zur Röntgenkristallstruktur von β-Catenin wurde mit den Programmen Grasp und LUDI (MSI) die Moleküloberfläche im Bereich der Bindungsstelle berechnet. Es ist hierdurch gelungen eine hydrophobe Tasche zu identifizieren (Abb.2), die von den folgenden Aminosäuren umrandet ist: Val 358, Met 363, Ala 391, Ala 392, Thr 393, Lys 394, Gln 395, Met 398, Leu 401, Leu 402, Ile 423, Asn 426, Leu 427, Thr 428, Cys 429, Asn 430, Asn 431, Asn 434, Met 437, Val 438. Diese Tasche lokalisiert in engster Nachbarschaft zu der essentiellen Bindungsstelle für LEF/TCF. Sie ist von großer Bedeutung für die Computer-gestützte Durchmusterung von Substanzbibliotheken zur Selektion von Molekülen, die in dieser Tasche binden. Die Idee primär hydrophobe Wechselwirkungen in der Tasche zum Ausgangspunkt zu wählen, hat den energetischen Vorteil, das die Substanzen nicht mit der Hydrathülle der geladenen Aminosäure-Reste der Oberfläche kompetieren müssen. Diese Substanzen stellen somit nach gezielter Modifikation potente Therapeutika zur Behandlung von Tumoren dar, da die Interaktion von LEF/TCF mit β-Catenin ein frühes Ereignis zur Entstehung von Tumoren darstellt. Sie wurden experimentell auf ihre Fähigkeit zur Hemmung der onkogenen Interaktion getestet (ELISA) und sollen modifiziert werden. Das molekulare Modellieren der Substanzen in der Tasche basiert auf der Idee, die Wechselwirkungen in der Tasche selbst zu stabilisieren und zusätzliche Kontakte zu den essentiellen Aminosäure-Resten der LEF/TCF-Bindungsstelle zu schaffen. Durch diese Strategie sollen die Substanzen in ihrer Wirkung optimiert werden. • 3. Identifizierung von Substanzen die in der hydrophoben Tasche binden Es wurden Computer-gestützt Substanzbibliotheken durchmustert und deren Moleküle auf stabilisierende Wechselwirkungen in der hydrophoben Tasche ausgewählt. Die ausgewählten Substanzen wurden auf Hemmung der Komplexbildung von β-Catenin und LEF-1 im ELISA experimentell getestet. […] Diese Kernstruktur besteht aus einem aromatischem Ring (beim Cefamandole am Kohlenstoffatom 17, Numerierung siehe "Positiv-Liste")), einer organischen Komponente, die der Struktur des Ala-Ala Dipeptides ähnelt, und einem β-Lactam- und Thiazolring. Mit dem aromatischen Ring wurde die Substanz in der beschriebenen hydrophoben Tasche eingepaßt. […]

First: NC(=O)c1cc[n+](CC2=C(C(=O)O)N3C(=O)[C@@H](NC(=O)[C@@H](c4ccccc4)S(=O)(=O)[O-])[C@H]3SC2)cc1 [Cefsulodine]
Second: Cn1nnnc1SCC1=C(C(=O)O)N2C(=O)[C@@H](NC(=O)[C@H](O)c3ccccc3)[C@H]2SC1 [Cefamandole]
The IC50 of the first is higher: 50 to 100 µM for the first, 25 µM for the second.

CC1=C(C(=O)O)N2C(=O)[C@@H](NC(=O)[C@H](N)c3ccc(O)cc3)[C@H]2SC1 [Cefadroxil] and Cn1nnnc1SCC1=C(C(=O)O)N2C(=O)[C@@H](NC(=O)[C@H](OC=O)c3ccccc3)[C@H]2SC1 [Cefamandole-Nafate] fall in the same range of IC50: 50 to 100 µM for the first, 50 to 100 µM for the second.

For CCCCCCCCCCCCCCCCCC(=O)OC[C@H]1OC(O)[C@H](NC(C)=O)[C@@H](O[C@H](C)C(=O)N[C@@H](C)C(=O)N[C@H](CCC(=O)O)C(N)=O)[C@@H]1O (stereo partly drawn) [AC-(6-O-Stearoyl)-Muramyl-Ala-D-Isoglutamine], the IC50 was 100 µM.
